Laboratory results from patent US10005817B2, “Peptide pharmaceuticals” (EUMEDERIS PHARMACEUTICALS, INC., priority 2012, dated 2018).

Columns and labels:
GLP-1 R = target: T1, GLP-1 R (Mus musculus, UniProt O35659); assay: GLP-1 cellular assay, cAMP stimulation (murine cell line, Cerep); format: cell-based; details: n.c. = EC50 not calculable
T1 construct: GLP-1 (murine cell line) cellular assays
T1 sequence (O35659 22-463): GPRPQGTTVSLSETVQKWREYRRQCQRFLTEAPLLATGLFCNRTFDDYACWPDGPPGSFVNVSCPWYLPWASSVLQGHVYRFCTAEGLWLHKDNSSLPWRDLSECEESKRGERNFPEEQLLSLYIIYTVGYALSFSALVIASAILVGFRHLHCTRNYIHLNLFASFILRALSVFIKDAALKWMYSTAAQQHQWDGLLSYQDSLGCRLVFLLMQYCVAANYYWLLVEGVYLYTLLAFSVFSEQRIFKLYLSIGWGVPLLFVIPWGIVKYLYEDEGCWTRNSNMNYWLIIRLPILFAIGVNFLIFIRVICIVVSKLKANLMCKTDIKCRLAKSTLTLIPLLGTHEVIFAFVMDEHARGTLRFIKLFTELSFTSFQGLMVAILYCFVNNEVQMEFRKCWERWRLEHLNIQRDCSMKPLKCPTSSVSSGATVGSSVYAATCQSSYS
Protocol: Compounds were weighed precisely in an amount of approximately 1 mg and assayed in standard cellular assays (Cerep SA). The readout is the amount of cAMP generated in the cells treated with the test compounds, in either agonist or antagonist mode. […] The assays are described in Chicchi, G. G., et al. (1997) J Biol Chem 272: 7765-7769 and Runge, S., et al. (2003) Br J Pharmacol 138: 787-794.

db/db mice [1] = assay: db/db mice, blood glucose after s.c. dosing; format: in vivo, mouse; details: for Mean Blood Glucose: db/db mice, s.c., 300 nmole/kg
Protocol: The 60 female db/db B6BKS (D) Leprdb/J (strain 000697) mice for this study were approximately 8 to 9 weeks old at arrival (Jackson Laboratory, Bar Harbor, Me.). […] One group of 8 female mice served as the vehicle control and received the vehicle, 0.2% BSA in saline, pH 7.4. One additional group of 8 female mice received the positive control article, liraglutide, at a dose level of 50 nmoles/kg. The test articles, vehicle, and positive control article were administered on Day 1, at approximately 0, 7, and 24 hours during the study via subcutaneous injection at a dose volume of 6 mL/kg.
(§1) Clinical observations were conducted at receipt, prior to randomization, and daily from Days 1 to 5. Body weights were measured and recorded at receipt, prior to randomization, and daily from Days 1 to 5. Food consumption was measured and recorded daily from Days 1 to 5. Blood samples for glucose analysis were collected pretest (Day −3) and at 0, 1, 2, 4, 8, 10, 24, 48, 72, and 96 hours following the first dose on Day 1. At study termination all animals were euthanized and the carcasses were discarded without further evaluation.

db/db mice [2] = assay: db/db mice, body weight; format: in vivo, mouse; details: high dose (300 nmoles/kg), Days 2 and 3
Protocol: The 60 female db/db B6BKS (D) Leprdb/J (strain 000697) mice for this study were approximately 8 to 9 weeks old at arrival (Jackson Laboratory, Bar Harbor, Me.). The mice were randomized by weight and two treatment groups of 8 female mice each were administered the test articles, EU-A994, EU-A995, or EU-A1026, at dose levels of 100 or 300 nmoles/kg. One group of 8 female mice served as the vehicle control and received the vehicle, 0.2% BSA in saline, pH 7.4. One additional group of 8 female mice received the positive control article, liraglutide, at a dose level of 50 nmoles/kg. The test articles, vehicle, and positive control article were administered on Day 1, at approximately 0, 7, and 24 hours during the study via subcutaneous injection at a dose volume of 6 mL/kg.
as §1

CCCCCCCCCCCCO[C@@H]1O[C@H](C(=O)NCCCC[C@H](NC(=O)[C@@H]2CCCCNC(=O)CC[C@H](NC(=O)[C@H](CC(=O)O)NC(=O)[C@H](CC(C)C)NC(=O)[C@H](Cc3ccc(O)cc3)NC(=O)[C@H](CCCCN)NC(=O)[C@H](CO)NC(=O)[C@H](Cc3ccc(O)cc3)NC(=O)[C@H](CC(=O)O)NC(=O)[C@H](CO)NC(=O)[C@@H](NC(=O)[C@H](Cc3ccccc3)NC(=O)[C@@H](NC(=O)CNC(=O)[C@H](CCC(N)=O)NC(=O)C(C)(C)NC(=O)[C@@H](N)Cc3c[nH]cn3)[C@@H](C)O)[C@@H](C)O)C(=O)N[C@@H](CCCNC(=N)N)C(=O)N[C@@H](C)C(=O)N[C@@H](C)C(=O)N2)C(=O)N[C@@H](Cc2ccccc2)C(=O)NC(C)(C)C(N)=O)[C@@H](O)[C@H](O)[C@H]1O [EU-A455]
EC50 (GLP-1 R): 59 nM

CCCCCCCCCCCCCCO[C@@H]1O[C@H](C(=O)NCCCC[C@H](NC(=O)[C@@H](NC(=O)[C@H](Cc2ccccc2)NC(=O)[C@H](CCC(=O)O)NC(=O)[C@@H]2CCCCNC(=O)CC[C@H](NC(=O)[C@H](CC(=O)O)NC(=O)[C@H](CC(C)C)NC(=O)[C@H](Cc3ccc(O)cc3)NC(=O)[C@H](CCCCN)NC(=O)[C@H](CO)NC(=O)[C@H](Cc3ccc(O)cc3)NC(=O)[C@H](CC(=O)O)NC(=O)[C@H](CO)NC(=O)[C@@H](NC(=O)[C@H](Cc3ccccc3)NC(=O)[C@@H](NC(=O)CNC(=O)[C@H](CCC(N)=O)NC(=O)C(C)(C)NC(=O)[C@@H](N)Cc3c[nH]cn3)[C@@H](C)O)[C@@H](C)O)C(=O)N[C@@H](CCC(N)=O)C(=O)N[C@@H](C)C(=O)N[C@@H](C)C(=O)N2)[C@@H](C)CC)C(=O)N[C@@H](Cc2c[nH]c3ccccc23)C(=O)N[C@@H](CC(C)C)C(=O)N[C@@H](CC(C)C)C(=O)N[C@@H](CCC(N)=O)C(=O)N[C@H](C(N)=O)[C@@H](C)O)[C@@H](O)[C@H](O)[C@H]1O [EU-A994]
Mean Blood Glucose (db/db mice [1]; 0 hr): 554 mg/dL
Mean Blood Glucose (db/db mice [1]; 10 hr): 242 mg/dL
Mean Blood Glucose (db/db mice [1]; 24 hr): 209 mg/dL
Mean Blood Glucose (db/db mice [1]; 48 hr): 385 mg/dL
Glucose levels vs vehicle (db/db mice [1]; high dose (300 nmoles/kg), at 10 and 24 hours): significantly different from vehicle
body weight changes against vehicle (db/db mice [2]): Significant body weight changes
